Results published in patent US11229628B2, “TRPA1 and TRPV4 inhibitors and methods of using the same for organ-specific inflammation and itch” (Duke University, priority 2015, dated 2022).
“Also recorded” adds a separate entry of the source.

Key:
[1] = tested on: primary mouse epidermal keratinocytes (1° MK); experiment: UVB-evoked Ca++ signaling in primary mouse keratinocytes (fluo-4 imaging); type: cell-based
Method: Ca++ imaging of 1° MK was conducted following routine procedures. For UVB stimulation, a customized device was built. The system comprised a printed circuit board for electrical interconnects and mechanical support and an ultraviolet light-emitting diode (UV LED).
The operating wavelength was 295 nm (FIG. 2A), with a full-width half-max of 12 nm. The optical power was 500 mW. The focal point was aimed at the plane of the upper surface of the quartz coverslip, which was used to minimize UV absorption along the optical path towards the cells (FIG. 2A-C). The optical intensity at the focal point was estimated to be 150 mW/mm^2.
Ca++ imaging of mouse 1° MK in response to chemical activation of TRPV4 was conducted after loading with 2 μM fura2-AM, following a ratiometric Ca2+ imaging protocol with 340/380 nm […] for dual excitation. Ratios of emissions were acquired at 0.5 Hz. ΔR/R0 was determined as the fraction of the increase of a given ratio over baseline ratio, divided by baseline ratio. For stimulation of cells with UVB, where fura-2 was not suitable because of the proximity of stimulation with 340/380 nm and 295 nm, 2 μM fluo4-AM was used instead. Ca++ imaging was carried out at 488 nm excitation, acquisition of emissions at 0.5 Hz, expressed as ΔF/F0. In the custom-built UV optical system, UV LEDs were capped with a ball lens, a transparent optical window in the shape of a hemispherical lens (FIG. 2B). The LED output optical beam focused at 15-20 mm from the lens, with a spot diameter of approximately 1.5˜2.0 mm (FIG. 2C). […] The thermal equilibration stage was set for physiological temperature.
To further dissect the underlying mechanisms involved, we built a customized device for specific and narrow-band UVB stimulation of primary mouse epidermal keratinocytes (1° MK) cultured in vitro (FIG. 6A-B and FIG. 2A-D). This allowed use of the Ca++ sensitive dye, fluo-4, and assessment of 1° MK's Ca++ dynamics following UVB exposure (FIG. 6B). The elicited Ca++ signal was obliterated by a UV-refracting glass coverslip, underscoring the strict dependence of the calcium response on UVB (FIG. 6C and FIG. 2A).

mouse paw-pad skin = experiment: UVB-photodermatitis of mouse paw-pad skin after topical treatment (immunolabeling, histopathology, Edn1 qPCR); type: in vivo
Method: (§1) A viscous solution of 68% EtOH/5% glycerol plus 1 mM or 5 mM GSK205 (none for control) was applied to hindpaws by rubbing in 20 μL, applied at time-points 1 hour and again 10 min before UV exposure.
Routine procedures were followed as described previously (Chen et al., 2009). Mice were perfused transcardially with 30 mL PBS, followed by 30 mL 4% paraformaldehyde. Tissues, including the L5 DRGs (bilateral), and footpad preparations, were dissected and post-fixed in 4% paraformaldehyde. Tissue blocks were further cryoprotected in 30% sucrose in PBS for 24-48 hours. For mouse TRPV4, keratin-specific antibodies, phospho-ERK, IL-6, IL-1β, CXCL5 and caspase-1, tissue was prepared as frozen blocks and subsequently sectioned on a cryostat. For CD68, CD15 (neutrophil elastase) and CD3, mouse skin was prepared by 2% PFA perfusion. Footpad and DRG sections (both at 6-10 μm) were thaw-mounted, blocked with 5% normal goat serum (NGS; Jackson), then incubated overnight at 4° C. with the following primary antibodies: rabbit anti-TRPV4 (1:300; Abcam), mouse anti-keratin 14 (1:300; Abcam against C-terminal peptide beyond residue 850); rabbit anti-keratin 14 (1:1000; Fuchs-Lab), rabbit anti-phosph-ERK1/2 (1:500; Cell signaling technologies), goat anti-IL-1β (1:800; Abcam), goat anti-IL-6 (1:200; Santa Cruz Biotechnology Inc); rabbit anti-caspase-1 (1:200; Biovision Research Products, CA); goat anti-mouse LIX/CXCL5 (1:200; R&D Systems Inc), anti-CD68, anti-[…], and anti-CD3 (AbDSerotec). Immunodetection was accomplished with appropriate fluorescently-labeled secondary antibodies (AlexaFluor595, AlexaFluor488-conjugated antibodies at 1:600; Invitrogen; for CD15 biotinylated secondary antibody from donkey, 1:400 followed by rhodamine-streptavidine 1:250), or with peroxidase-linked detection reagents (for CD68) for 2 hours at room-temperature. Sections were rinsed, mounted, and cover-slipped with fluoromount (Sigma). Digital micrographs were obtained using a BX61 Olympus upright microscope, also with a Zeiss LSM510 confocal, both equipped with high-res CCD camera, and acquired with constant exposure settings, using ISEE or Zeiss Zen software. Morphometric analysis was conducted using ImageJ freeware (v1.45) with tailored regions-of-interest that spared the nuclear compartment. ImageJ was also used for determination of DRG surface area.
In view of TRPV4-dependence of ET/Edn1 expression in skin, we measured Edn1 mRNA abundance in GSK205 vs. vehicle treated paw-pad skin. […] In striking contrast, and in keeping with histopathology, Edn1 mRNA-expression in GSK205 topically-treated skin was found unchanged.
We also tested the response of down-stream UVB effector mechanisms to GSK205 treatment in vivo.

mice = experiment: UVB-evoked nocifensive behavior after topical GSK205 (Hargreaves' test, von Frey hair); type: in vivo, mouse
Method: as §1
Behavioral tests were performed to evaluate the decrease in withdrawal thresholds in response to mechanical or thermal stimuli applied to hind paws. These withdrawal thresholds were ascertained before and after UVB exposure. Mice were confined by plexi-glass enclosures on top of 25×26 cm Bio Rad Gel Doc 2000 UV transilluminator (302 nm), and otherwise allowed to openly explore this environment. UV-exposure lasted for 5 minutes with an exposure of 600 mJ/cm^2.
Hindpaw mechanical withdrawal thresholds were determined by the automated von Frey hair method, using a 0.5 mm diameter stainless steel filament, part of an automated plantar touch stimulator (Ugo Basile, Modena, Italy). Relevant detail included pre-test acclimatization in a quiet room for 30 min, conducting the test at the same time of day and blinded observers. The stimulus was delivered to the hindpaw, automatically discontinued upon withdrawal, and its intensity recorded automatically. 6-8 trials per animal were conducted, with equal exposure of both hindpaws, leading to an average withdrawal threshold. Results are reported as Δ-threshold, which was calculated by subtracting post-treatment from pre-treatment measurements, expressed as % or relative to 1.0.
Hindpaw thermal (hot) withdrawal thresholds were determined by the well-established Hargreaves' method, using an infra-red thermal stimulation device that delivers the stimulus from underneath the hindpaw combined with automatic shut-off upon withdrawal (Ugo Basile). Stimulation and measurements were conducted as described for von Frey hair testing. A cutoff of 20 sec was set to prevent tissue damage.
In view of the observed impact of epidermal-specific TRPV4-deficiency on mouse nociception in response to UVB, and because of the unambiguous effects of selective TRPV4 blockers on 1° MK in vitro, we tested the possible clinical relevance of our findings. For this purpose, we topically applied TRPV4 inhibitor GSK205 to WT mouse skin and subsequently exposed animals to UVB (FIG. 12A).

With `CN(CCc1ccc(Nc2nc(-c3cccnc3)cs2)cc1)Cc1ccccc1` [GSK205] the “ET1-augmented UVB-evoked Ca++ signaling” value ([1]; UVB and ET1 co-exposure) was “greatly diminished”, the “UVB-evoked Ca++ signaling” value ([1]; fluo-4 ΔF/F0, GSK205 20 μM) was “very similar response to that of Trpv4−/− 1° MK; also recorded: strongly down-regulated; also recorded: significant attenuation” and the “histopathology of UVB-photodermatitis” value (mouse paw-pad skin; topical 5 mM GSK205) was “virtual elimination of inflammation; also recorded: markedly reduced inflammatory infiltrate”. The “keratinocyte expression of CXCL5 in UVB-exposed footpad” value (mouse paw-pad skin; topical 5 mM GSK205) was “significant blocks; also recorded: attenuates”, the “keratinocyte expression of IL-1β in UVB-exposed footpad” value (mouse paw-pad skin; topical 5 mM GSK205) was “failed to upregulate; also recorded: attenuates” and the “keratinocyte expression of IL-6 in UVB-exposed footpad” value (mouse paw-pad skin; topical 5 mM GSK205) was “significant blocks; also recorded: attenuates”. The “Edn1 mRNA expression in paw-pad skin after UVB” value (mouse paw-pad skin; topical 5 mM GSK205, 2 hour and 24 hour time-points) was “unchanged; also recorded: complete lack of this regulation”, the “delay in thermal sensitivity after UVB” value (mice; topical 1 mM GSK205, Hargreaves' test) was ~24 h and the “sensitivity to von Frey hair mechanical stimulation after UVB” value (mice; topical 5 mM GSK205) was “significantly reduced sensitivity”. The “thermally-evoked nocifensive behavior (thermal allodynia) after UVB” value (mice; topical 5 mM GSK205, Hargreaves' test, 48 hours post-UVB) was “sustained attenuation; also recorded: significant attenuation of thermal allodynia” and the “nocifensive behavior after UVB in Trpv4−/− mice (off-target effects)” value (mice; topical 5 mM GSK205 vs. vehicle, Trpv4−/− mice) was “did not show any inter-group differences; also recorded: lack of off-target effects”.
